Data reported in ChEMBL document CHEMBL5120844, “Discovery of novel non-steroidal selective glucocorticoid receptor modulators by structure- and IGN-based virtual screening, structural optimization, and biological evaluation” (Eur J Med Chem, 2022).
Calls of active or inactive are those of the source. No cut-off for these calls is given here.

How the values were obtained:
HeLa = assay: Inhibition of NF-kappaB transcriptional activity in human HeLa cells transfected with NF-kappaB-Luc at 10 uM by dual-luciferase reporter gene assay relative to control; format: cell-based
[1] = Inhibition of NF-kappaB transcriptional activity in human HeLa cells transfected with NF-kappaB-Luc by dual-luciferase reporter gene assay; format: cell-based
NIH3T3 = assay: Cytotoxicity against mouse 3T3 cells assessed as reduction in cell viability after 24 hrs by MTT assay; format: toxicity, cell-based; conditions: nih3t3, 24 h
RAW264.7 [2] = assay: Anti-inflammatory activity against mouse RAW264.7 cells assessed as reduction in LPS-induced IL-1beta mRNA expression level preincubated for 1 hr followed by LPS addition and measured after 16 hrs by qRT-PCR analysis; format: functional, cell-based; conditions: time 17.0 hrs
RAW264.7 [3] = assay: Anti-inflammatory activity against mouse RAW264.7 cells assessed as reduction in LPS-induced IL-6 mRNA expression level preincubated for 1 hr followed by LPS addition and measured after 16 hrs by qRT-PCR analysis; format: functional, cell-based; conditions: time 17.0 hrs
RAW264.7 [4] = assay: Anti-inflammatory activity against mouse RAW264.7 cells assessed as reduction in LPS-induced COX-2 mRNA expression level preincubated for 1 hr followed by LPS addition and measured after 16 hrs by qRT-PCR analysis; format: functional, cell-based; conditions: time 17.0 hrs
MG-63 [5] = assay: Induction of osteoporosis in human MG-63 cells assessed as decrease in OPG mRNA expression level at 10 uM by qRT-PCR analysis; format: functional, cell-based
MG-63 [6] = assay: Induction of osteoporosis in human MG-63 cells assessed as decrease in RANKL mRNA expression level at 10 uM by qRT-PCR analysis; format: functional, cell-based
RAW264.7 [7] = assay: Anti-inflammatory activity against mouse RAW264.7 cells assessed as inhibition of LPS-induced NO production at 25 uM incubated for 16 hrs by Greiss reagent assay; format: functional, cell-based
A549 = assay: Anti-inflammatory activity against human A549 cells assessed as reduction in TNFalpha induced IL-1beta mRNA expression level by qRT-PCR analysis; format: functional, cell-based
[8] = target: T1, Progesterone receptor (Homo sapiens) (UniProt P06401); assay: Agonist activity at progesterone receptor (unknown origin) expressed in PC3 cells co-transfected with ARR3tk-luciferase/Renilla at 10 to 25 uM incubated for 16 hrs by luciferase reporter gene assay; format: cell-based; conditions: PC-3, filed as agonist, dose 10-25 µM
T1 sequence (whole entry): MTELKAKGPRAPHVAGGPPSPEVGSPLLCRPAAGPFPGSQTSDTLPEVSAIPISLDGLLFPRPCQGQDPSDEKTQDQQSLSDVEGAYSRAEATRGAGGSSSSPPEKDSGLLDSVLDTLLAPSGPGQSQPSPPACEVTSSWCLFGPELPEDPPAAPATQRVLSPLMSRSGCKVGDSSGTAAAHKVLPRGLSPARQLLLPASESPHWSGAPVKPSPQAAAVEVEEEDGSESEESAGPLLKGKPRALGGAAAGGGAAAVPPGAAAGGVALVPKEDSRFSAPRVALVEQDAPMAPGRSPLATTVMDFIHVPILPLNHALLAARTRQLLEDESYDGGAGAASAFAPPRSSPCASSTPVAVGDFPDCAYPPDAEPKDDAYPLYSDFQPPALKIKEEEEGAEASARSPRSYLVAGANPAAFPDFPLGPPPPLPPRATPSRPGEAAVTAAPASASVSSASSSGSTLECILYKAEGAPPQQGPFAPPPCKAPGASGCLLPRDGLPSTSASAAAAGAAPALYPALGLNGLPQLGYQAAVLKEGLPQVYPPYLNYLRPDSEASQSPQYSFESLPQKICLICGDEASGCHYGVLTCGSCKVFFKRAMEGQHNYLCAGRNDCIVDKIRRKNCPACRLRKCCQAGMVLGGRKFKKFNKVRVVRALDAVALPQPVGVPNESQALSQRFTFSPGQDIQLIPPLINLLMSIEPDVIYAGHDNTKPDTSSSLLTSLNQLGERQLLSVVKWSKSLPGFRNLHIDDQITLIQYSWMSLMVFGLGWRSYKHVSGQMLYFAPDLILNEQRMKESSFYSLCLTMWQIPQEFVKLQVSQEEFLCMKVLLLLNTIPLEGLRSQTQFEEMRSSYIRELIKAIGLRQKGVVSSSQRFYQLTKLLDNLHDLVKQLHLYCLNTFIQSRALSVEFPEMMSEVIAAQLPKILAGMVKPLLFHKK

[9] = target: T2, Mineralocorticoid receptor (Homo sapiens) (UniProt P08235); assay: Agonist activity at mineralocorticoid receptor (unknown origin) expressed in HEK293T cells co-transfected with pGL4.36[luc2P MMTV Hygro]/Renilla at 10 to 25 uM incubated for 16 hrs by luciferase reporter gene assay; format: cell-based; conditions: filed as agonist, dose 10-25 µM
T2 sequence (whole entry): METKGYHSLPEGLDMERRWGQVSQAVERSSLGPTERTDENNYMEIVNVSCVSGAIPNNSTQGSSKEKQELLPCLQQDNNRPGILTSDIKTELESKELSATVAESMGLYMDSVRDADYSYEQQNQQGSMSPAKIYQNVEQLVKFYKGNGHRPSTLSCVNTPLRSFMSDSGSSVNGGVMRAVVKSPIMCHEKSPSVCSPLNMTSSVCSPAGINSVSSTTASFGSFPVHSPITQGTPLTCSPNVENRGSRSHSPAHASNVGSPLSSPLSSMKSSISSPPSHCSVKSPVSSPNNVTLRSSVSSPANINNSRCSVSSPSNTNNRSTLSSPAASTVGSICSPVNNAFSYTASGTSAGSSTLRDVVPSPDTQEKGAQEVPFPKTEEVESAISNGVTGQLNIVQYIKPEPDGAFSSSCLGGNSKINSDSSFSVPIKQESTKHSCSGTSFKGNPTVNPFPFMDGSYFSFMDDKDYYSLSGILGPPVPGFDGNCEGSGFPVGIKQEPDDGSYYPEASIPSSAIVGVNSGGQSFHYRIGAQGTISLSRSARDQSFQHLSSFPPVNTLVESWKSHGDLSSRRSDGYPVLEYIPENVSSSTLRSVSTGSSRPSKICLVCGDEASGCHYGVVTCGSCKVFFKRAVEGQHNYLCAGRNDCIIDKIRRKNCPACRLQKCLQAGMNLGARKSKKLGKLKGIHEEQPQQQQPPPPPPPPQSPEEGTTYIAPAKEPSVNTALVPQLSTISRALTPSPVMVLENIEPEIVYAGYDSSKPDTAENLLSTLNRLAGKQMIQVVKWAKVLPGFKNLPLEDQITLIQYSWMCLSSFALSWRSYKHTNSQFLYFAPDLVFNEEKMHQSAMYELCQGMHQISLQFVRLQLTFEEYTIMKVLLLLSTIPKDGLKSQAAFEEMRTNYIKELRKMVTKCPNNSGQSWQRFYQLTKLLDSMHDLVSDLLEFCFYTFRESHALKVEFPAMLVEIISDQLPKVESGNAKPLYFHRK

RAW264.7 [10] = assay: Anti-inflammatory activity against mouse RAW264.7 cells assessed as reduction in LPS-induced […] mRNA expression level preincubated for 1 hr followed by LPS addition and measured after 16 hrs by qRT-PCR analysis; format: functional, cell-based; conditions: time 17.0 hrs
RAW264.7 [11] = assay: Cytotoxicity against mouse RAW264.7 cells assessed as reduction in cell viability at 25 uM incubated for 48 hrs by MTT assay; format: toxicity, cell-based; conditions: raw264.7, 48 h
[12] = target: T3, Glucocorticoid receptor (Homo sapiens) (UniProt P04150); assay: Binding affinity to recombinant human GST-tagged glucocorticoid receptor ligand binding domain at 10 uM by TR-FRET assay relative to control; conditions: filed as modulator
T3 sequence (whole entry): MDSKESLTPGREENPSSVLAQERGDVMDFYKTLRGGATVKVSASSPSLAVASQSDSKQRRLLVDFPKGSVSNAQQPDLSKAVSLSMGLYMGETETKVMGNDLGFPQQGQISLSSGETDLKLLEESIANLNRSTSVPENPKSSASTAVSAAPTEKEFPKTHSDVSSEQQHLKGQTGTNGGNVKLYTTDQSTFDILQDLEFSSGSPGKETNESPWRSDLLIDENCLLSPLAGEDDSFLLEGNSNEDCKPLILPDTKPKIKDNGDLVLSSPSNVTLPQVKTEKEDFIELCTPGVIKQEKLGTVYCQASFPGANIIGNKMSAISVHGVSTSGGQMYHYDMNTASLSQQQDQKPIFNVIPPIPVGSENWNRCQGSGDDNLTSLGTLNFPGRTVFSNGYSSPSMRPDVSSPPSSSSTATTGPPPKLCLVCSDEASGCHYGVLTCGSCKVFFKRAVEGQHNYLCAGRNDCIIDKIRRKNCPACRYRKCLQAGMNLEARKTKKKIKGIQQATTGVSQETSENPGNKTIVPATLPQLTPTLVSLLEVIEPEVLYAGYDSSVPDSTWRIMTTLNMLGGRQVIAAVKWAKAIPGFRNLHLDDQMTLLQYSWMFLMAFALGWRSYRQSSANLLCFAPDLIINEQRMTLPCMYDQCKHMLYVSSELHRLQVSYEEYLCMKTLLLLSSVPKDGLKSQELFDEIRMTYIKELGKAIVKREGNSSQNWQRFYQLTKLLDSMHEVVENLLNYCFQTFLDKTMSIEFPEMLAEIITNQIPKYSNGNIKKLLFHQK

[13] = target: T3, Glucocorticoid receptor (Homo sapiens); assay: (§1) Binding affinity to recombinant human GST-tagged glucocorticoid receptor ligand binding domain by TR-FRET assay relative to control; conditions: filed as modulator, DDE = dose-dependent effect
Glucocorticoid receptor = target: T4, Glucocorticoid receptor (Homo sapiens, UniProt P04150); assay: as §1
T4 sequence (P04150 whole entry): T3 sequence (whole entry)

O=C(c1ccc(Cn2c(=S)[nH]c3ccsc3c2=O)cc1)N1CCc2ccccc2C1
inhibition (HeLa): 106% | IC50 [1]: 0.99 µM

C[C@H](NC(=O)c1ccc(Cn2c(=S)[nH]c3ccsc3c2=O)cc1)c1ccccc1
IC50 [1]: 1.92 µM | Activity (NIH3T3): Non-Toxic | Activity (RAW264.7 [2]): Active | Activity (RAW264.7 [3]): Active | Activity (RAW264.7 [4]): Active

O=C(NCc1cccnc1)c1ccc(Cn2c(=S)[nH]c3ccsc3c2=O)cc1
inhibition (HeLa): 76%

Cc1ccc(S(=O)(=O)NCc2ccc(C(=O)NC(C)c3ccccc3)cc2)cc1 (configuration not stated)
inhibition (HeLa): 51.3%

CC(NC(=O)c1ccc(CN2CCc3ccccc3C2)cc1)c1ccccc1 (configuration not stated)
inhibition (HeLa): 49.1%

Cn1c(=O)n(C)c2cc(NC(=O)c3ccc(CN4CCc5ccccc5C4)cc3)ccc21
inhibition (HeLa): 10.6%

CC(NC(=O)c1ccc(/C=C2/Sc3ccccc3NC2=O)cc1)c1ccc2c(c1)OCCO2 (configuration not stated)
inhibition (HeLa): 67% | IC50 [1]: 18.3 µM

O=C(c1ccc2c(=O)n(Cc3ccc(Cl)cc3)c(=S)[nH]c2c1)N(CCO)Cc1ccccc1
inhibition (HeLa): 75.8%

COc1ccccc1Nc1nc(C(=O)N(CC(=O)NC2CC2)Cc2ccccc2)cs1
inhibition (HeLa): 99.9% | IC50 [1]: 1.07 µM

O=C(Nc1ccccc1C(=O)NCc1cccnc1)c1ccc(CN2CCc3ccccc3C2)cc1
inhibition (HeLa): 89% | IC50 [1]: 6.61 µM

CC(C)[C@H](NC(=O)C(C)(F)F)[C@H](Oc1ccc2c(cnn2-c2ccc(=O)n(C)c2)c1)c1ccccc1
Activity (MG-63 [5]): Toxic | Activity (MG-63 [6]): Non-Toxic

C[C@@H]1C[C@H]2[C@@H]3CCC4=CC(=O)C=C[C@]4(C)[C@@]3(F)[C@@H](O)C[C@]2(C)[C@@]1(O)C(=O)CO
inhibition (RAW264.7 [7]): Active | Activity (A549): Active | Activity [8]: Active | Activity [9]: Active | Activity (MG-63 [5]): Toxic | Activity (MG-63 [6]): Non-Toxic | Activity (RAW264.7 [2]): Active | Activity (RAW264.7 [10]): Active

O=C(c1ccc(Cn2c(=S)[nH]c3ccc(Br)cc3c2=O)cc1)N1CCN(c2cccc(Cl)c2)CC1
inhibition (HeLa): 54.1%

COc1ccc(CNC(=O)c2ccc(Cn3c(=S)[nH]c4ccsc4c3=O)cc2)cc1
inhibition (HeLa): 93.1% | IC50 [1]: 7.38 µM

CC(NC(=O)c1ccc(Cn2c(=S)[nH]c3ccsc3c2=O)cc1)c1ccccc1 (configuration not stated)
inhibition (RAW264.7 [7]): Active | Activity (RAW264.7 [11]): Non-Toxic | inhibition (HeLa): 86.9% | Activity [12]: < 60% | Activity [13]: Dde | IC50 (Glucocorticoid receptor): 2.05 µM | Activity (A549): Active | Activity (MG-63 [5]): Toxic | Activity (MG-63 [6]): Non-Toxic | IC50 [1]: 2.32 µM | Activity (RAW264.7 [2]): Active | Activity (RAW264.7 [3]): Active | Activity (RAW264.7 [4]): Active

CC(NC(=O)c1ccc(Cn2c(=S)[nH]c3ccsc3c2=O)cc1)c1ccc2c(c1)OCO2 (configuration not stated)
inhibition (HeLa): 94.6% | IC50 [1]: 5.14 µM

CC(NC(=O)c1ccc(CN2CC(=O)N3CSC[C@@H]3C2=O)cc1)c1ccccc1 (some centres not stated)
inhibition (HeLa): 34.1%

C[C@@H](NC(=O)c1ccc(Cn2c(=S)[nH]c3ccsc3c2=O)cc1)c1ccccc1
IC50 [1]: 3.8 µM | Activity (NIH3T3): Non-Toxic | Activity (RAW264.7 [2]): Active | Activity (RAW264.7 [3]): Active | Activity (RAW264.7 [4]): Active
